Holding throughout (assay type): cell-based, mouse
One series has as its system fibronectin. The series can be described thus: Fibronectin expression in bone marrow cells (Western blotting, real-time PCR). Here is the method:
Bone marrow cells were collected from 10-week-old EP1^−/− and wild-type mice and treated with 3 μM PGE2 for 24 hours before harvest. Total protein was extracted from the cultured cells at day 17 and RNA was extracted at days 10, 12, 14, 17 and 21 after culture. Western blotting (FIG. 10A) and real-time PCR (FIG. 10B) were performed to examine the expression levels of fibronectin. […] Statistical comparisons were performed using 2-way ANOVA followed by Dunnett's test. a=P<0.05 vs. wild-type, b=P<0.05 vs. control, c=P<0.05 vs. PGE2.
(§1) Relative RNA levels of EP1 and fibronectin were determined by real-time PCR (FIGS. 11A and 11B). Immunohistochemistry was performed using mouse fibronectin primary antibody on the femur fracture tissue samples collected from 10-week-old EP1^−/− and wild-type mice at 3 and 7 days post-fracture (FIG. 11C). Statistical comparisons were performed using 2-way ANOVA followed by Student's t-test. a=P<0.05 vs. wild-type, b=P<0.05 vs. control, c=P<0.05 vs. PGE2.
(§2) Mice were sacrificed post fracture at 3, 7, 10, 14, 21 and 28 days (N=4). Fracture callus tissue samples were carefully dissected from soft tissue and homogenized using the TissueLyzer (Qiagen; Valencia, Calif.). Total RNA was then extracted from homogenized samples by the RNeasy Fibrous Tissue Midi Kit (Qiagen) according to the manufacturer's instructions. One microgram aliquots of RNA were reverse transcribed into cDNA using the iScript cDNA Synthesis Kit (Bio-Rad; Hercules, Calif.). Real-time […] was performed using the Rotor Gene 6000 real-time DNA amplification system (Qiagen) according to the manufacturer's instruction. […]
Bone marrow cells were washed with cold phosphate-buffered saline (PBS) three times and lysed on ice in Golden Lysis Buffer (GLB) for 30 minutes as previously described (Li et al., Exp. Cell Res. 300:159-69 (2004)). […] The immune complexes were detected using NBT/BCIP substrate (Pierce Biotechnology).

The next series has as its system EP2 and EP4 receptors. The series can be described thus: cAMP-Glo Assay in bone marrow cell cultures. On the set-up: dose or concentration left out as unconfirmed. The conditions noted are these: bone marrow cell cultures from wild type and EP1−/− mice. Here is the method: Bone marrow cells were isolated from 10-week-old EP1^−/− mice and wild-type mice. After culturing for 7 days, cells were treated with PGE2 ([…]) or vehicle for 24 hours. […] The representative photomicrographs are shown at 200× original magnification. Statistical comparisons were performed using Student's T-test. “a” indicates p<0.05 compared to wild-type, “b” indicates p<0.05 compared to EP1^−/−. β-actin served as the loading control.
(§3) Bone marrow cells were isolated from 10-week-old EP1^−/− and C57BL/6J mice. Cells were cultured in 2 ml α-MEM containing 10% FBS at 5×10^6 cells/well in 6-well plates. After being cultured for 7 days, the medium was replaced with media containing beta-glycerophosphate and ascorbic acid, and the media was changed every two days thereafter. Cells were harvested on day 10, 12, 14, 17 and 21 after plating for alkaline phosphatase and alizarin red staining, and mRNA analysis by quantitative real-time PCR. Cell proliferation was examined using the Cell Proliferation ELISA BrdU (colorimetric) immunoassay kit (Roche; Indianapolis, Ind.) according to the manufacturer's instructions. Cell viability was examined using the CellTiter-Blue Cell Viability Assay (Promega; Madison, Wis.) according to the manufacturer's instructions. Intracellular cAMP activity in bone marrow cells was examined using the cAMP-Glo Assay (Promega) according to the manufacturer's instructions.

Series [1] relates to primary bone marrow stromal cells. The series can be described thus: Bone nodule formation / mineralization (Alizarin red staining) in bone marrow cell cultures. As to the method:
(§4) An EP1 expression vector was transfected into the EP1^−/− bone marrow cells by electroporation. […] Bone marrow progenitor cells at day 12 after culture were treated with SC19220 (10 μm) for 30 minutes followed by treatment with PGE2 (3 μm). After 24 hours, cells were stained with Alizarin red (FIGS. 12C and 12D). RNA extracted from the cultures was examined for osteocalcin expression (FIG. 12E). Statistical comparisons were performed using Student's t-test. a=P<0.05 vs. control, b=P<0.05 vs. PGE2.
Increasing concentrations of fibronectin were added to bone marrow cell cultures at day 12. 24 hours later, cells were stained with Alizarin Red (FIGS. 13A and 138) or harvested for real-time PCR (FIG. 13B). Statistical comparisons were performed using Student's t-test, a=P<0.05 vs. control.
as §3

Another series concerns osteocalcin. The series can be described thus: Osteocalcin expression by real-time PCR in bone marrow cell cultures. Conditions: cultures treated with SC19220 and PGE2, RNA. Here is the method:
as §4
as §3, with “Intracellular cAMP activity in bone marrow cells was examined using the cAMP-Glo Assay (Promega) according to the manufacturer's instructions.” left out
(Quantitative PCR measures a nucleic acid by following its amplification.)

The subject of another series is EP1 mRNA. The series can be described thus: siRNA knock down of EP1 expression in primary bone marrow stromal cells (real-time PCR). Conditions: primary bone marrow stromal cells transfected with EP1 siRNA. Here is the method:
as §1, §2
To further confirm regulation of fibronectin by the PGE2-EP1 signaling pathway, siRNA as described above was used to knock down EP1 expression in primary bone marrow stromal cells. […] Fibronectin expression levels were examined by quantitative real-time PCR.

`CCCCC[C@H](O)/C=C/[C@H]1[C@H](O)CC(=O)[C@@H]1C/C=C\CCCC(=O)O` [PGE2]: the fibronectin expression entry in the series with fibronectin (cells with control siRNA, quantitative real-time PCR) is given as “stimulate fibronectin expression”. Moreover, the “expression of fibronectin (protein and mRNA)” value in the series on fibronectin (wild-type bone marrow cells compared with EP1−/− cells, 3 μM PGE2 for 24 hours) is “dramatically increased”. The “levels of cAMP” value in the series with EP2 and EP4 receptors is reported as “similarly enhanced”.
`CC(=O)NNC(=O)N1Cc2ccccc2Oc2ccc(Cl)cc21` [SC19220, 8-chloro-dibenz[b,f][1,4]oxazepine-10(11H)-carboxy-(2-acetyl)hydrazide]: the bone nodule formation result in series [1] (primary bone marrow cell cultures at day 12, SC19220 (10 μm) for 30 minutes, then PGE2 (3 μm), 24 hours, Alizarin red) was “accelerated bone nodule formation”. Besides, in series [1] (wild-type cells, 12 day cultures treated with antagonist and PGE2 for 24 hours, untreated cultures typically form nodules following 14 days), the “time in culture at which bone nodule formation was induced” value is listed as at most 13 days. The “expression level of osteocalcin” value in the series with osteocalcin is listed as “increased”.
With “EP1 siRNA: siRNA used to knock down EP1 expression; example sequences SEQ ID NO:21 and SEQ ID NO:22 (chain 1 AGCUUGUCGGUAUCAUGGUTT; chain 2 ACUUCUAAGCACACCAGATT; chemistry not given here)”, the PGE2-stimulated fibronectin expression result with fibronectin (cells transfected with EP1 siRNA vs control siRNA, quantitative real-time PCR) was “inhibited”. In addition, in the series on EP1 mRNA, the “decrease of EP1 mRNA” value is “about 40%”.
Regarding fibronectin, the bone nodule formation result in series [1] (wild-type bone marrow cells, 5 μg/ml fibronectin added at day 12, 24 hours, alizarin red) is given as “did not alter bone nodule formation”. Further, the mineralization result in series [1] (wild-type bone marrow cells, 12.5 μg/ml fibronectin added at day 12, 24 hours, alizarin red) is “significantly reduced mineralization”; in series [1] (wild-type bone marrow cells, 25 μg/ml fibronectin added at day 12, 24 hours, alizarin red) it was “significantly reduced mineralization”.

The record behind these values is patent US20120328631A1, “EP1 INHIBITION” (UNIVERSITY OF ROCHESTER, priority 2010, published 2012).
